Measurements published in PubChem BioAssay AID1963443 (Molecular Pharmacology Branch, DTP, NCI, 2024).

Tested on: MDA-MB-231 complex spheroids, growth inhibition
Experiment: Anticancer human tumor MDA-MB-231 cell line growth inhibition [Asc];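 note: spheroids exposed to compounds for 7 days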
Details: for IC50: curve of first compound; for viability, T/C: stronger effect = lower value
Procedure, shortened: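 Spheroid model: tumor line + HUVEC + hMSC. Single agents and combinations; top conc. at/near clinical Cmax (10 microM if undetermined), half-log dilutions. DMSO stocks at 800-fold test concentration.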

`CCN1C(C(=O)NC23CCC(C(=O)O)(CC2)CC3)C(c2cccc(Cl)c2F)C2(C(=O)Nc3cc(Cl)ccc32)C12CCCCC2` (stereo not given) + Cc1c(S(C)(=O)=O)c(-c2cc(F)cc(N3CCN(c4ccc(NS(=O)(=O)c5ccc(NC(CCN6CCC(C(=O)OCCCP(=O)(O)O)CC6)CSc6ccccc6)c(S(=O)(=O)C(F)(F)F)c5)cc4)CC3)c2)c(-c2ccc(Cl)cc2)n1C(C)C gave an IC50 (second compound 0.1 µM) greater than 3000 nM, an IC50 (second compound 0.316 µM) greater than 3000 nM and an IC50 (second compound 1 µM) greater than 3000 nM. The IC50 (second compound 3.16 µM) was greater than 3000 nM, the IC50 (second compound 10 µM) was greater than 3000 nM and the viability, T/C (second compound 0.1 µM, first compound 0.00949 µM) was 90%. The viability, T/C (second compound 0.1 µM, first compound 0.03 µM) was 82.6%, the viability, T/C (second compound 0.1 µM, first compound 0.0949 µM) was 103% and the viability, T/C (second compound 0.1 µM, first compound 0.3 µM) was 103%. For the same compound, the viability, T/C (second compound 0.1 µM, first compound 0.949 µM) was 101%, the viability, T/C (second compound 0.1 µM, first compound 3 µM) was 108% and the viability, T/C (second compound 0.316 µM, first compound 0.00949 µM) was 104%. The viability, T/C (second compound 0.316 µM, first compound 0.03 µM) was 105%, the viability, T/C (second compound 0.316 µM, first compound 0.0949 µM) was 105% and the viability, T/C (second compound 0.316 µM, first compound 0.3 µM) was 106%. The viability, T/C (second compound 0.316 µM, first compound 0.949 µM) was 106%, the viability, T/C (second compound 0.316 µM, first compound 3 µM) was 94.9% and the viability, T/C (second compound 1 µM, first compound 0.00949 µM) was 100%. For the same compound, the viability, T/C (second compound 1 µM, first compound 0.03 µM) was 100%, the viability, T/C (second compound 1 µM, first compound 0.0949 µM) was 104% and the viability, T/C (second compound 1 µM, first compound 0.3 µM) was 100%. The viability, T/C (second compound 1 µM, first compound 0.949 µM) was 105%, the viability, T/C (second compound 1 µM, first compound 3 µM) was 82% and the viability, T/C (second compound 3.16 µM, first compound 0.00949 µM) was 94.5%. It also gave a viability, T/C (second compound 3.16 µM, first compound 0.03 µM) of 98.4%, a viability, T/C (second compound 3.16 µM, first compound 0.0949 µM) of 92.9% and a viability, T/C (second compound 3.16 µM, first compound 0.3 µM) of 91.2%. The viability, T/C (second compound 3.16 µM, first compound 0.949 µM) was 93.4%, the viability, T/C (second compound 3.16 µM, first compound 3 µM) was 70.8% and the viability, T/C (second compound 10 µM, first compound 0.00949 µM) was 94%. It also gave a viability, T/C (second compound 10 µM, first compound 0.03 µM) of 95.7%, a viability, T/C (second compound 10 µM, first compound 0.0949 µM) of 93.5% and a viability, T/C (second compound 10 µM, first compound 0.3 µM) of 93.7%. It also gave a viability, T/C (second compound 10 µM, first compound 0.949 µM) of 83.3% and a viability, T/C (second compound 10 µM, first compound 3 µM) of 57.6%.

With `CNC(C)C(=O)NC1CN(S(=O)(=O)c2cccc(S(=O)(=O)N3CCC4CCC(C(=O)NC(c5ccccc5)c5ccccc5)N4C(=O)C(NC(=O)C(C)NC)C3)c2)CCC2CCC(C(=O)NC(c3ccccc3)c3ccccc3)N2C1=O` (stereo not given) + Cc1c(S(C)(=O)=O)c(-c2cc(F)cc(N3CCN(c4ccc(NS(=O)(=O)c5ccc(NC(CCN6CCC(C(=O)OCCCP(=O)(O)O)CC6)CSc6ccccc6)c(S(=O)(=O)C(F)(F)F)c5)cc4)CC3)c2)c(-c2ccc(Cl)cc2)n1C(C)C the IC50 (second compound 0.1 µM) was less than 3.16 nM, the IC50 (second compound 0.316 µM) was less than 3.16 nM and the IC50 (second compound 1 µM) was less than 3.16 nM. It also gave an IC50 (second compound 3.16 µM) of less than 3.16 nM, an IC50 (second compound 10 µM) of less than 3.16 nM and a viability, T/C (second compound 0.1 µM, first compound 0.00316 µM) of 2.88%. It also gave a viability, T/C (second compound 0.1 µM, first compound 0.01 µM) of 0.95%, a viability, T/C (second compound 0.1 µM, first compound 0.0316 µM) of 0.9% and a viability, T/C (second compound 0.1 µM, first compound 0.1 µM) of 0.67%. It also gave a viability, T/C (second compound 0.1 µM, first compound 0.316 µM) of 0.5%, a viability, T/C (second compound 0.1 µM, first compound 1 µM) of 0.72% and a viability, T/C (second compound 0.316 µM, first compound 0.00316 µM) of 2.6%. For the same compound, the viability, T/C (second compound 0.316 µM, first compound 0.01 µM) was 0.97%, the viability, T/C (second compound 0.316 µM, first compound 0.0316 µM) was 0.75% and the viability, T/C (second compound 0.316 µM, first compound 0.1 µM) was 0.41%. The viability, T/C (second compound 0.316 µM, first compound 0.316 µM) was 0.53%, the viability, T/C (second compound 0.316 µM, first compound 1 µM) was 0.56% and the viability, T/C (second compound 1 µM, first compound 0.00316 µM) was 2.07%. For the same compound, the viability, T/C (second compound 1 µM, first compound 0.01 µM) was 0.62%, the viability, T/C (second compound 1 µM, first compound 0.0316 µM) was 0.54% and the viability, T/C (second compound 1 µM, first compound 0.1 µM) was 0.29%. The viability, T/C (second compound 1 µM, first compound 0.316 µM) was 0.35%, the viability, T/C (second compound 1 µM, first compound 1 µM) was 0.9% and the viability, T/C (second compound 3.16 µM, first compound 0.00316 µM) was 1.77%. For the same compound, the viability, T/C (second compound 3.16 µM, first compound 0.01 µM) was 0.46%, the viability, T/C (second compound 3.16 µM, first compound 0.0316 µM) was 0.35% and the viability, T/C (second compound 3.16 µM, first compound 0.1 µM) was 0.27%. For the same compound, the viability, T/C (second compound 3.16 µM, first compound 0.316 µM) was 0.26%, the viability, T/C (second compound 3.16 µM, first compound 1 µM) was 0.39% and the viability, T/C (second compound 10 µM, first compound 0.00316 µM) was 1.22%. For the same compound, the viability, T/C (second compound 10 µM, first compound 0.01 µM) was 0.49%, the viability, T/C (second compound 10 µM, first compound 0.0316 µM) was 0.42% and the viability, T/C (second compound 10 µM, first compound 0.1 µM) was 0.48%. It also gave a viability, T/C (second compound 10 µM, first compound 0.316 µM) of 0.43% and a viability, T/C (second compound 10 µM, first compound 1 µM) of 0.61%.
